Test results: ChEMBL document CHEMBL1139528, “Molecular determinants of topoisomerase I poisoning by lamellarins: comparison with camptothecin and structure-activity relationships” (J Med Chem, 2005)

How the values were obtained:
[1] = Inhibitory concentration against CEM/C2 cell growth after incubation in liquid medium for 72 h; assay type: functional, cell-based; settings: Homo sapiens, CEM/C2, 72 h
CCRF-CEM [2] = assay: Ratio of IC50 against CPT-resistant cell line to that of CPT-sensitive cell line expressed as relative resistant index; assay type: functional, Homo sapiens
CCRF-CEM [3] = assay: Inhibitory concentration against CEM cell growth after incubation in liquid medium for 72 h; assay type: functional, cell-based; settings: Homo sapiens

| SMILES | IC50 [1] | RRI (CCRF-CEM [2]) | IC50 (CCRF-CEM [3]) |
| --- | --- | --- | --- |
| COc1cc(-c2c3c4ccccc4oc(=O)c3n3ccc4cc(O)c(OC)cc4c23)ccc1O | 11.1 µM | 5 | 2230 nM |
| COc1ccc2oc(=O)c3c(c(-c4ccc(O)c(OC)c4)c4c5cc(OC)c(O)cc5ccn43)c2c1 | 6.25 µM | 12 | 520 nM |
| COc1ccc(-c2c3c4cc5c(cc4oc(=O)c3n3ccc4cc(OC)c(OC)cc4c23)OCO5)cc1OC | > 100 µM | – | > 100000 nM |
| COc1cc2c(cc1O)oc(=O)c1c2c(-c2ccc(OC)c(OC)c2)c2c3cc(OC)c(OC)cc3ccn21 | 5.55 µM | 2 | 3030 nM |
| O=c1oc2ccccc2c2c(-c3ccc(O)c(O)c3)c3c4cc(O)c(O)cc4ccn3c12 | 0.95 µM | 2 | 430 nM |
| CC(=O)Oc1ccc(-c2c3c4cc(OC(C)=O)c(OC(C)=O)cc4oc(=O)c3n3ccc4cc(OC(C)=O)c(OC(C)=O)cc4c23)cc1OC(C)=O | 6.93 µM | 4 | 1950 nM |
| COc1cc(-c2c3c4ccc(O)cc4oc(=O)c3n3ccc4cc(O)c(OC)cc4c23)ccc1O | 2.74 µM | 164 | 17 nM |
| CC[C@@]1(O)C(=O)OCc2c1cc1n(c2=O)Cc2cc3ccccc3nc2-1 [CAMPTOTHECIN] | 5.38 µM | 6400 | 0.84 nM |
| COc1cc(-c2c3c4cc(OC)c(O)cc4oc(=O)c3n3ccc4cc(O)c(OC)cc4c23)ccc1O [LAMELLARIN D] | 0.72 µM | 144 | 5 nM |
